Measurements as given in patent US6608082B1, “Treatment of erectile dysfunction using isoquinoline compound melanocortin receptor ligands” (Lion Bioscience AG, priority 1998, dated 2003).
Like-named read-outs stand apart in the source and are kept apart here. Values belong to the compound of their own block, whether it stands above or below them.

Key:
MCR-4 = target: T1, MCR-4 (Homo sapiens, UniProt P32245); assay: Melanocortin receptor binding assay, competition with 125I-HP 467, HEK 293 cells expressing hMCR-4; conditions: read-out: MC-4 IC50
T1 construct: expressed in transfected cells; host or cells: HEK 293
Procedure, shortened: (§1)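 Test compounds compete on intact HEK 293 cells carrying hMCR-1 (2×10^4 per tube) or hMCR-4 (4×10^3 per tube), suspended in PBS, 10% calf serum, 1 mM CaCl2.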

MCR-1 = target: T2, MCR-1 (Homo sapiens, UniProt Q01726); assay: Melanocortin receptor binding assay, competition with 125I-HP 467, HEK 293 cells expressing hMCR-1; conditions: for IC50: read-out: MC-1 IC50; for % Disp. MC-1 10 μM: displacement of 125I-HP 467 at 10 μM isoquinoline compound
T2 construct: expressed in transfected cells; host or cells: HEK 293
Procedure, shortened: as §1

[1] = TRG 2405 section, inhibition of binding of 125I-HP 467, HEK 293 cells expressing MCR-4
[2] = TRG 2405 section, inhibition of binding of 125I-HP 467, HEK 293 cells expressing MCR-1
[3] = inhibition of binding of 125I-HP 467, HEK 293 cells expressing MCR-4, TRG 2414 library
[4] = inhibition of binding of 125I-HP 467, HEK 293 cells expressing MCR-1, TRG 2414 library
[5] = competition with 125I-HP 467, HEK 293 cells expressing MCR-4
[6] = competition with 125I-HP 467, HEK 293 cells expressing MCR-1
[7] = inhibition of binding of 125I-HP 467, HEK 293 cells expressing MCR-4
[8] = inhibition of binding of 125I-HP 467, HEK 293 cells expressing MCR-1
[9] = TRG 2414 library, inhibition of binding of 125I-HP 467, HEK 293 cells expressing MCR-4
[10] = TRG 2414 library, inhibition of binding of 125I-HP 467, HEK 293 cells expressing MCR-1
[11] = TRG 2408 and TRG 2409 libraries, inhibition of 125I-HP 467 binding
[12] = TRG 2406 and TRG 2407 libraries, inhibition of binding of 125I-HP 467

T2 sequence (Q01726 whole entry): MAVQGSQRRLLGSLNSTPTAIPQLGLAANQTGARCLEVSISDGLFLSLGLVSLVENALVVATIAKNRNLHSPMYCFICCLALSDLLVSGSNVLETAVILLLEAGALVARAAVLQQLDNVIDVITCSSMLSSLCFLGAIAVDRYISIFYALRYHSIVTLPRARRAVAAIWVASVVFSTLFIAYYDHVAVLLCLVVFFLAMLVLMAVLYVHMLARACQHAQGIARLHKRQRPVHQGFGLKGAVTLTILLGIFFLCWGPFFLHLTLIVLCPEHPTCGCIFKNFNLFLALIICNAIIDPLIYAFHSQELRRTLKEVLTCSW
T1 sequence (P32245 whole entry): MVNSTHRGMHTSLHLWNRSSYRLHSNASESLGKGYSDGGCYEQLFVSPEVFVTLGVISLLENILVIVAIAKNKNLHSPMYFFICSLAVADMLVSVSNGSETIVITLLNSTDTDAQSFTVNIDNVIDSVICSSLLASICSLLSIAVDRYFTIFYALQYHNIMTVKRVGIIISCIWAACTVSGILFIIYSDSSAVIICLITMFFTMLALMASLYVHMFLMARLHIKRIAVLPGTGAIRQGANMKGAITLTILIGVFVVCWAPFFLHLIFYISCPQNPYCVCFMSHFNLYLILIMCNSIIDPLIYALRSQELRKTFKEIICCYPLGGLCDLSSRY

- IC50 (MCR-4; [1]): 11.2 µM
- IC50 (MCR-1; [2]): 12.2 µM
- % Disp. MC-1 10 μM (MCR-1; first of duplicate): 54.2%
- % Disp. MC-1 10 μM (MCR-1; second of duplicate): 59.6%
SMILES: CNC(CN)CN1Cc2ccccc2C(CNC2CCCCC2)C1c1ccc(Cl)cc1Cl (stereo not shown) [TRG 2405-100]

- IC50 (MCR-4; [3]): 1.27 µM
- IC50 (MCR-1; [4]): 1.93 µM
SMILES: NCC(N)CCCCN1Cc2ccccc2C(CNC2CCCCC2)C1c1cccc(Oc2ccccc2)c1 (stereo not shown) [TRG 2414-117]

- IC50 (MCR-4; [5]): 0.85 µM
- IC50 (MCR-1; [6]): 0.08 µM
SMILES: CCCCNc1ccc(C2C(CN)c3ccccc3CN2CCCC(CN)NCCc2ccccc2)cc1 (stereo not shown) [TRG 2409-221]

- IC50 (MCR-4; [3]): 4.11 µM
- IC50 (MCR-1; [4]): 1.48 µM
SMILES: CCCOc1ccc(C2C(CNCc3ccc(OC)cc3)c3ccccc3CN2CCCCC(CN)NCCc2ccccc2)cc1 (stereo not shown) [TRG 2414-182]

- IC50 (MCR-4; [3]): 4.21 µM
- IC50 (MCR-1; [4]): 2.04 µM
SMILES: COc1ccc(CNCC2c3ccccc3CN(CCCCC(N)CN)C2c2ccc(Oc3ccccc3)cc2)cc1 (stereo not shown) [TRG 2414-141]

- IC50 (MCR-4; [7]): 0.4 µM
- IC50 (MCR-1; [8]): 1.27 µM
SMILES: CNC(CN)CCCN1Cc2ccccc2C(CNCCc2ccccc2)C1c1ccc([N+](=O)[O-])cc1 (stereo not shown) [TRG 2413-16]

- IC50 (MCR-4; [9]): 5.53 µM
- IC50 (MCR-1; [10]): 1.95 µM
SMILES: CCCOc1ccc(C2C(CNCc3ccccc3)c3ccccc3CN2CCCCC(CN)NCc2ccccc2)cc1 (stereo not shown) [Cmpd 191]

SMILES: COc1ccc(CNC(CN)CCCCN2Cc3ccccc3C(CNCCc3ccccc3)C2c2cc(C(F)(F)F)cc(C(F)(F)F)c2)cc1 (stereo not shown) [TRG 2421-4]
- IC50 (MCR-4; [7]): 2.81 µM
- IC50 (MCR-1; [8]): 2.57 µM

- IC50 (MCR-4; [3]): 16.8 µM
- IC50 (MCR-1; [4]): 8.21 µM
SMILES: COc1ccc(CCNCC2c3ccccc3CN(CCCCC(CN)NCCc3ccccc3)C2c2ccc(Oc3ccccc3)cc2)cc1 (mixture of isomers) [TRG 2414-146]

- IC50 (MCR-4; [11]): 25 µM
- IC50 (MCR-1; [11]): 2.67 µM
SMILES: CCNc1ccc(C2C(CNC3CCCCC3)c3ccccc3CN2CCCC(CN)NCCNC)cc1 (stereo not shown) [TRG 2408-64]

- IC50 (MCR-4; [3]): 5.48 µM
- IC50 (MCR-1; [4]): 0.998 µM
SMILES: CCCOc1ccc(C2C(CNCc3cccc(OC)c3)c3ccccc3CN2CCCCC(CN)NCc2ccccc2)cc1 (stereo not shown) [TRG 2414-179]

- IC50 (MCR-4; [3]): 5.02 µM
- IC50 (MCR-1; [4]): 3.56 µM
SMILES: COc1ccc(CNCC2c3ccccc3CN(CCCCC(CN)NCCc3ccccc3)C2c2ccc(Cl)cc2Cl)cc1 (stereo not shown) [TRG 2414-22]

- IC50 (MCR-4; [9]): 8.09 µM
- IC50 (MCR-1; [10]): 2.81 µM
SMILES: CCCOc1ccc(C2C(CNCCc3ccc(OC)cc3)c3ccccc3CN2CCCCC(CN)NCCc2ccccc2)cc1 (stereo not shown) [Cmpd 186]

- IC50 (MCR-4; [3]): 22.6 µM
- IC50 (MCR-1; [4]): 2.73 µM
SMILES: CCCOc1ccc(C2C(CNCc3ccccc3C(F)(F)F)c3ccccc3CN2CCCCC(CN)NCc2ccccc2)cc1 (stereo not shown) [TRG 2414-163]

SMILES: COc1cccc(CCNCC2c3ccccc3CN(CCCCC(CN)NCc3ccccc3)C2c2cc(C(F)(F)F)cc(C(F)(F)F)c2)c1 (stereo not shown) [TRG 2421-36]
- IC50 (MCR-4; [7]): 0.89 µM
- IC50 (MCR-1; [8]): 3.99 µM

- IC50 (MCR-4; [1]): 11.6 µM
- IC50 (MCR-1; [2]): 2.17 µM
- % Disp. MC-1 10 μM (MCR-1; first of duplicate): 76.8%
- % Disp. MC-1 10 μM (MCR-1; second of duplicate): 77.7%
SMILES: Cn1cccc1C1C(CNC2CCCCC2)c2ccccc2CN1CCN (stereo not shown) [TRG 2405-4]

- IC50 (MCR-4; [12]): 0.69 µM
- IC50 (MCR-1; [12]): 1.34 µM
SMILES: CNC(CN)CCCCN1Cc2ccccc2C(CNCCc2ccccc2Cl)C1c1ccc(Cl)cc1Cl (mixture of isomers) [TRG 2407-22]

- IC50 (MCR-4; [9]): 4.43 µM
- IC50 (MCR-1; [10]): 3.7 µM
SMILES: COc1ccccc1CCNCC1c2ccccc2CN(CCCCC(CN)NCCc2ccccc2)C1c1ccccc1Br (stereo not shown) [Cmpd 210]

- IC50 (MCR-4; [3]): 4.26 µM
- IC50 (MCR-1; [4]): 6.28 µM
SMILES: NCC(CCCCN1Cc2ccccc2C(CNC2CCCCC2)C1c1cc(C(F)(F)F)cc(C(F)(F)F)c1)NCCc1ccccc1 (stereo not shown) [TRG 2414-78]

- IC50 (MCR-4; [5]): 1.82 µM
- IC50 (MCR-1; [6]): 0.24 µM
SMILES: CCNc1ccc(C2C(CN)c3ccccc3CN2CCCCC(CN)NCCc2ccccc2)cc1 (stereo not shown) [TRG 2411-63]

- IC50 (MCR-4; [12]): 9.69 µM
- IC50 (MCR-1; [12]): 12.3 µM
SMILES: CNC(CN)CN1Cc2ccccc2C(CNCc2ccccc2O)C1c1cccc(Oc2ccc(Cl)c(Cl)c2)c1 (stereo not shown) [TRG 2406-3]

- IC50 (MCR-4; [7]): 1.06 µM
- IC50 (MCR-1; [8]): 0.12 µM
SMILES: CCNc1ccc(C2C(CN)c3ccccc3CN2CCCC(CN)NCCc2ccc(Br)cc2)cc1 (stereo not shown) [TRG 2411-180]

- IC50 (MCR-4; [3]): 4.49 µM
- IC50 (MCR-1; [4]): 8.44 µM
SMILES: NCC(CCCCN1Cc2ccccc2C(CNC2CCCCC2)C1c1cccc(Oc2ccccc2)c1)NCCc1ccccc1 (mixture of isomers) [TRG 2414-118]

- IC50 (MCR-4; [3]): 8.58 µM
- IC50 (MCR-1; [4]): 6.82 µM
SMILES: CCCOc1ccc(C2C(CNCc3ccccc3OCC)c3ccccc3CN2CCCCC(CN)NCCc2ccccc2)cc1 (stereo not shown) [TRG 2414-166]
